Measured values reported in US11084847B2, “Polyamide compound and use thereof” (SICHUAN KELUN-BIOTECH BIOPHARMACEUTICAL CO., LTD., priority 2016, dated 2021).
Where two headings read alike, the source gives them in different places.

Tests used:
[1] = biological target: T1, human κ-opioid receptor (KOR) (Homo sapiens, UniProt P41145); assay: κ-opioid receptor agonistic effect (inhibition of adenylate cyclase, cAMP assay); format: cell-based
T1 construct: expressed in transfected cells
Procedure: The efficacy of the compounds of the invention as κ-opioid receptor agonists was determined by measuring the ability of the compounds of Examples to inhibit adenylate cyclase activity.
Cell culture: hamster ovary cells CHO stably expressing human κ-opioid receptor (KOR) gene were cultured in MEMα plus nucleosides medium (Invitrogen) containing 5% FBS.
Stimulation: the test compound was 4-fold diluted in a gradient manner to obtain 11 concentrations, and 100 nl of each was transferred to a 384-well plate, and then a stimulating solution (5 uL) containing NKH477 (Tocris) was added; the cells were digested, re-suspended, and counted; and then the cells (5 uL) were added to wells, mixed gently, and incubated at 37° C. for 30 min.
Detection: cAMP Assay Kit (Cisbio) was used, cAMP-D2 and Anti-cAMP-Cryptate were added separately, and the resultant mixture was incubated for 1 h at room temperature. The plate was read using envision (Perkin Elmer) and EC50 was obtained by means of fitting with a four-parameter equation.

[2] = system: male ICR mice; assay: Acetic acid-induced writhing test in mice; format: in vivo; set-up: ED50: unit not given here; conditions: for ED50: iv administration 15 min before 0.6% acetic acid ip, writhes counted within 15 min
Procedure: The analgesic effect of the compound of the invention was evaluated by measuring the ED50 of the compounds of Examples in the acetic acid-induced writhing test in mice.
The commercial glacial acetic acid solution was diluted with physiological saline to 0.6% glacial acetic acid solution. The male ICR mice were randomly separated into the drug group and the model group (to which physiological saline was administration). 15 minutes after iv administration, 0.6% acetic acid solution was intraperitoneally injected at 10 ml/kg, and the mice was immediately recorded with DV camera for 15 min. After the recording, the number of writhes of the mice within 15 min was counted from the video by blind method, the inhibition rate for the writhes was calculated according to Formula (I), and the ED50 of the compound was calculated according to Formula (II).
(I) The inhibition rate for the writhes was calculated by the formula: Inhibition rate (%)=(the number of writhes in a model group−the number of writhes in a drug group)/the number of writhes in a model group*100.
(II) The ED50 was calculated by the formula:
[formula] wherein Xm was the logarithm of the highest dose, d was the difference in the logarithm of two adjacent doses, p was the inhibition rate for each dose group, pm was the highest-dose inhibition rate, and pn was the lowest-dose inhibition rate.

[3] = biological target: KOR (Homo sapiens, UniProt P41145); assay: Opioid receptor selectivity, radioligand competition binding (3H-diprenophrine) on cell membranes
Procedure: (§1) The selectivity of the compounds of the invention for κ opioid receptors was determined by measuring the inhibitory effect of the compounds of Examples on the […] of KOR, MOR, and DOR.
(§2) The compounds of Examples at different concentrations were incubated with the cell membrane with high expression of KOR, MOR, DOR and the corresponding radioligand (KOR: 3H-diprenophrine; MOR: 3H-DAMGO; DOR: 3H-DADLE) for 1 h, the compounds of Examples competed with the radioligands for binding to KOR, MOR, DOR. After the incubation, Cell harvest was used to collect cell membranes onto a Unifilter-96 GF/C filter plate, and the unbound radioligands were washed away. The plate was placed in a 50-degree oven for 1 h, and finally the scintillation solution Microscint 20 cocktail was added and the isotope signal was detected by MicroBeta2 Reader.
(§3) According to the intensity of the isotope signal at different concentrations, the IC50 was calculated by means of fitting with a four-parameter equation, and the Ki value was calculated.
(§4) The Ki value was calculated according to the formula Ki=IC50/(1+[radioligand]/Kd), and Kd was the equilibrium dissociation constant of radioligand.

[4] = biological target: MOR (Homo sapiens, UniProt P35372); assay: Opioid receptor selectivity, radioligand competition binding (3H-DAMGO) on cell membranes
Procedure: as §1, §2, §3, §4

[5] = biological target: DOR (Homo sapiens, UniProt P41143); assay: Opioid receptor selectivity, radioligand competition binding (3H-DADLE) on cell membranes
Procedure: as §1, §2, §3, §4

[6] = Pharmacokinetic (PK) study in rats; format: in vivo; conditions: male SD rats, intravenous, 1 mg/kg; for AUC(0-t) / Cmax / Vd / half-life: rat, plasma
Procedure: The pharmacokinetic profile of the compounds of Examples was studied by intravenous administration of the compounds of Examples to male SD rats. The dose for IV administration was 1 mg/kg, and the solvent was 5% DMSO: 5% solutol: 90% physiological saline. After IV administration, blood samples were collected at different time points for PK study. Plasma were treated by protein precipitation and then analyzed by LC-MS/MS.
In LC-MS/MS, mass spectrum was API 5500, and liquid chromatography was Shimadzu LC-30AD system. The column used for the test groups of Compound 3 and Compound 4 was Thermo C18 column (4.6 mm×100 mm, 3 μm); for mobile phases, phase A was water+0.1% formic acid, and phase B was methanol; the flow rate was 0.8 mL/min, and the column temperature was 40° C. The column used for the test group of Compound 5 was Agela AQ C18 column (2.1 mm×50 mm, 1.9 μm); for mobile phases, phase A was water+0.05% formic acid+5 mM acetic acid ammonium, and phase B was methanol+0.05% formic acid; the flow rate was 0.6 mL/min, and the column temperature was 40° C. The ion source used was the ESI source in positive ion mode, and the scanning mode was Multiple Reaction Monitoring (MRM).

[7] = CHO cells stably expressing human KOR, NKH477-stimulated cAMP, four-parameter fit, read-out: ED50 (the source's name)
[8] = Ki=IC50/(1+[radioligand]/Kd), read-out: KOR Ki
[9] = radioligand 3H-diprenophrine, 1 h incubation, read-out: KOR IC50
[10] = Ki=IC50/(1+[radioligand]/Kd), read-out: MOR Ki
[11] = radioligand 3H-DAMGO, 1 h incubation, read-out: MOR IC50
[12] = Ki=IC50/(1+[radioligand]/Kd), read-out: DOR Ki
[13] = radioligand 3H-DADLE, 1 h incubation, read-out: DOR IC50

| Compound | EC50 [1, 7] [nM] | ED50 [2] | pharmacokinetic profile (in words) [6] | AUC(0-t) [6] [ng·h/mL] | Cmax [6] [ng/mL] | Vd [6] [L/kg] | half-life [6] [min] | other results |
| --- | --- | --- | --- | --- | --- | --- | --- | --- |
| CC(C)C[C@@H](NC(=O)[C@@H](Cc1ccccc1)NC(=O)[C@H](N)Cc1ccccc1)C(=O)N[C@H](CCCCNCC(=O)O)C(=O)N1CCC(N)(C(=O)O)CC1 [Example 17, 4-amino-1-((R)-2-((R)-2-((R)-2-((R)-2-amino-3-phenylpropanamido)-3-phenylpropanamido)-4-methylpentanamido)-6-((carboxymethyl)amino)hexanoyl)piperidin-4-carboxylic acid] | 0.42 | – | – | – | – | – | – | – |
| COCCOCCNCCCC[C@@H](NC(=O)[C@@H](CC(C)C)NC(=O)[C@@H](Cc1ccccc1)NC(=O)[C@H](N)Cc1ccccc1)C(=O)N1CCC2(CC1)NC(=O)NC2=O [Example 23, 8-((R)-2-((R)-2-((R)-2-((R)-2-amino-3-phenylpropanamido)-3-phenylpropanamido)-4-methylpentanamido)-6-(2-(methoxyethoxy)ethylamino)hexanoyl)-1,3,8-triaza-spiro[4.5]decane-2,4-dione] | 0.016 | – | – | – | – | – | – | – |
| COCCOCCNCCCC[C@@H](NC(=O)[C@@H](CC(C)C)NC(=O)[C@@H](Cc1ccccc1)NC(=O)[C@H](N)Cc1ccccc1)C(=O)N1C2CC1CN(CC(=O)O)C2 [Example 24, 2-(6-((R)-2-((R)-2-((R)-2-((R)-2-amino-3-phenylpropanamido)-3-phenylpropanamido)-4-methylpentanamido)-6-((2-(2-methoxyethoxy)ethyl)amino)hexanoyl)-3,6-diazabicyclo[3.1.1]heptan-3-yl)acetic acid] | 0.005 | – | – | – | – | – | – | – |
| CC(C)C[C@@H](NC(=O)[C@@H](Cc1ccccc1)NC(=O)[C@H](N)Cc1ccccc1)C(=O)N[C@H](CCCCNC(CO)CO)C(=O)N1CCC(N)(C(=O)O)CC1 [Example 8, 4-amino-1-((R)-2-((R)-2-((R)-2-((R)-2-amino-3-phenylpropanamido)-3-phenylpropanamido)-4-methylpentanamido)-6-((1,3-dihydroxypropan-2-yl)amino)hexanoyl)piperidin-4-carboxylic acid] | 0.03 | – | – | – | – | – | – | – |
| COCCOCCOCCOCCOCCOCCOCCNCCCC[C@@H](NC(=O)[C@@H](CC(C)C)NC(=O)[C@@H](Cc1ccccc1)NC(=O)[C@H](N)Cc1ccccc1)C(=O)N1CCC(N)(C(=O)O)CC1 [Example 6, 4-amino-1-((R)-28-((R)-2-((R)-2-((R)-2-amino-3-phenylpropanamido)-3-phenylpropanamido)-4-methylpentanamido)-2,5,8,11,14,17,20-heptaoxa-23-azanonacosan-29-oyl)piperidin-4-carboxylic acid] | – | 0.036 | good exposure amount and Cmax | 2180 | 3660 | 0.2 | 17.4 | analgesic effect (in words) ([2]; acetic acid-induced writhing, mice, iv): significant analgesic effect; EC50 [1]: 0.11 nM; IC50 [3]: 0.33 nM; Ki [3]: 0.11 nM; KOR selectivity (in words) ([3]; KOR versus MOR and DOR binding): excellent KOR selectivity; IC50 [4]: > 20000 nM; Ki [4]: > 7180 nM; IC50 [5]: > 20000 nM; Ki [5]: > 12000 nM |
| CC(C)C[C@@H](NC(=O)[C@@H](Cc1ccccc1)NC(=O)[C@H](N)Cc1ccccc1)C(=O)N[C@H](CCCCNCCCN)C(=O)N1CCC(N)(C(=O)O)CC1 [Example 4, 4-amino-1-((R)-2-((R)-2-((R)-2-((R)-2-amino-3-phenylpropanamido)-3-phenylpropanamido)-4-methylpentanamido)-6-((3-aminopropyl)amino)hexanoyl)piperidin-4-carboxylic acid] | 0.07 | 0.029 | good exposure amount and Cmax | 2410 | 3590 | 0.74 | 73.2 | Ki [3, 8]: < 0.01 nM; IC50 [3, 9]: < 0.03 nM; Ki [4, 10]: > 7180 nM; IC50 [4, 11]: > 20000 nM; Ki [5, 12]: > 12000 nM; IC50 [5, 13]: > 20000 nM |
| CC(C)C[C@@H](NC(=O)[C@@H](Cc1ccccc1)NC(=O)[C@H](N)Cc1ccccc1)C(=O)N[C@H](CCCCNC[C@H](O)CO)C(=O)N1CCC(N)(C(=O)O)CC1 [Example 2, 4-amino-1-((R)-2-((R)-2-((R)-2-((R)-2-amino-3-phenylpropanamido)-3-phenylpropanamido)-4-methylpentanamido)-6-(((S)-2,3-dihydroxypropyl)amino)hexanoyl)piperidin-4-carboxylic acid] | 0.08 | – | – | – | – | – | – | – |
| CC(C)C[C@@H](NC(=O)[C@@H](Cc1ccccc1)NC(=O)[C@H](N)Cc1ccccc1)C(=O)N[C@H](CCCCNCCN)C(=O)N1CCC(N)(C(=O)O)CC1 [Example 3, 4-amino-1-((R)-2-((R)-2-((R)-2-((R)-2-amino-3-phenylpropanamido)-3-phenylpropanamido)-4-methylpentanamido)-6-((2-aminoethyl)amino)hexanoyl)piperidin-4-carboxylic acid] | 0.06 | 0.041 | good exposure amount and Cmax | 1790 | 2650 | 0.28 | 20.4 | Ki [3, 8]: < 0.01 nM; IC50 [3, 9]: < 0.03 nM; Ki [4, 10]: > 7180 nM; IC50 [4, 11]: > 20000 nM; Ki [5, 12]: > 12000 nM; IC50 [5, 13]: > 20000 nM |
| CC(C)C[C@@H](NC(=O)[C@@H](Cc1ccccc1)NC(=O)[C@H](N)Cc1ccccc1)C(=O)N[C@H](CCCCNC[C@@H](O)CO)C(=O)N1CCC(N)(C(=O)O)CC1 [Example 1, 4-amino-1-((R)-2-((R)-2-((R)-2-((R)-2-amino-3-phenylpropanamido)-3-phenylpropanamido)-4-methylpentanamido)-6-(((R)-2,3-dihydroxypropyl)amino)hexanoyl)piperidin-4-carboxylic acid] | 0.09 | – | – | – | – | – | – | – |
| COCCOCCN(CCCC[C@@H](NC(=O)[C@@H](CC(C)C)NC(=O)[C@@H](Cc1ccccc1)NC(=O)[C@H](N)Cc1ccccc1)C(=O)N1CCC(N)(C(=O)O)CC1)CCOCCOC [Example 15, 4-amino-1-((R)-2-((R)-2-((R)-2-((R)-2-amino-3-phenylpropanamido)-3-phenylpropanamido)-4-methylpentanamido)-6-(di(2-(2-methoxyethoxy)ethyl)amino)hexanoyl)piperidin-4-carboxylic acid] | 0.06 | – | – | – | – | – | – | – |
